Measured values from patent publication US20160031817A1, “3-PIPERIDONE COMPOUNDS AND THEIR USE AS NEUROKININ-1 (NK1) RECEPTOR ANTAGONISTS” (NANYANG TECHNOLOGICAL UNIVERSITY, priority 2013, published 2016).

- melting point: 203 to 204 °C (dec.)
SMILES: Oc1ccc(OC(F)(F)F)cc1C1COC2(CCCNC2c2ccccc2)C1 (racemic) [rac-3, rac-2-(6-phenyl-1-oxa-7-azaspiro[4.5]decan-3-yl)-4-(trifluoromethoxy)phenol]
